From patent US20080267948A1, “Croos-B Structure Binding Compounds” (priority 2005, published 2008)
“Also recorded” adds a separate entry of the source. Like-named read-outs stand apart in the source and are kept apart here.

How the values were obtained:
[1] = test system: misfolded proteins (Hb-AGE, Aβ); experiment: Binding of misfolded proteins from solution to immobilized small compounds (overall); conditions: compounds coated on ELISA plates, Hb-AGE or Aβ in solution
Method: (§1) To test the ability of the twelve selected compounds (see Table 7) to bind to misfolded proteins, the compounds were immobilized at 10/100/1000 μg/ml in the wells of 96-wells Greiner Microlon high binding plates, Nunc amino Immobilizer plates and Nunc Maxisorp plates. Compounds were coated in 100 mM NaHCO3 pH 9.6, 50 μl/well, 1 h at room temperature with agitation. As a control, wells were coated with buffer only. After blocking of the plates, wells were overlayed with solutions of 0.1/1/10 μg/ml Hb-AGE or 10/100 μg/ml Aβ, in binding buffer (PBS/0.1% Tween20). After washing, binding of Hb-AGE was assessed by overlaying wells with 1 μg/ml hybridoma antibody 4B5, which binds to glycations(^2), followed by RAMPO. Binding of Aβ was visualized using 500× diluted anti-Aβ antibodies (mouse antibody beta-amyloid Clone 6F/3D #M0872, lot 00003503, DAKOCytomation; β-amyloid (H-43) SC-9129, 200 μg/ml rabbit polyclonal IgG, Santa Cruz Biotechnology) and RAMPO/SWARPO in a 1:1 ratio. Finally, wells were overlayed with OPD/H2O2 solution, and H2SO4, before absorbance readings at 490 nm.

Aβ = biological target: T1, Aβ (Homo sapiens, UniProt P05067, E693Q); experiment: Binding of Aβ from solution to immobilized small compounds; conditions: Aβ 100 μg/ml
T1 construct: Lyophilized human amyloid-β(1-40) with E22Q mutation ‘Dutch type’; purchased Peptide facility, Dutch Cancer Institute, Amsterdam; host or cells: synthetic peptide
Method: as §1, with “the compounds were immobilized at 10/100/1000 μg/ml in the wells of 96-wells” left out

[2] = biological target: T2, Hb-AGE (glucose-6-phosphate modified human haemoglobin) (Homo sapiens, UniProt P68871+P69905); experiment: ELISA binding of tPA to immobilized Hb-AGE, compounds co-incubated with tPA; conditions: compound mixed with tPA, control without compound = 100
T2 construct: purchased Sigma-Aldrich H7379
Method: The small compound library is depicted in Tables 4-5. […] Binding experiments were performed in single wells per compound, in a duplicate experiment. Binding data obtained with this duplicate experiment was averaged.
• 1. […] Coat buffer in control wells. • 2. wash three times with wash buffer • 3. Block all wells with 300 μl 0.5*recommended concentration Roche blocking reagent for 30 minutes at room temperature, with agitation • 4. wash twice • 5. […] Incubate for 30 minutes at room temperature, with agitation • 7. wash five times with TBS/0.1% Tween20 • 8. […] Incubate for 30 minutes at room temperature, with agitation • 10. wash five times with TBS/0.1% Tween20 • 11. Fill wells with 3000× diluted horse raddish peroxidase-labeled polyclonal rabbit anti-mouse antibody (RAMPO, DAKOCytomation) • 12. Incubate for 20 minutes at room temperature, with agitation • 13. Wash five times with TBS/0.1% Tween20 • 14. Wash twice with PBS • 15. Stain with 100 μl TMB, stop with 50 μl 10% H2SO4 • 16. Read absorbance at 450 nm

[3] = information found on the www, search completed Spring 2006, cited from earlier work

T2 sequence (P69905 2-142 limits assumed): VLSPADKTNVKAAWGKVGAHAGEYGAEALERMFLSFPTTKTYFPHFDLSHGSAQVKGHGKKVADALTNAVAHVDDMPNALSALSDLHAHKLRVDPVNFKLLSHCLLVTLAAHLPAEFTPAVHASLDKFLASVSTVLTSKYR
T2 sequence (P68871 2-147 limits assumed): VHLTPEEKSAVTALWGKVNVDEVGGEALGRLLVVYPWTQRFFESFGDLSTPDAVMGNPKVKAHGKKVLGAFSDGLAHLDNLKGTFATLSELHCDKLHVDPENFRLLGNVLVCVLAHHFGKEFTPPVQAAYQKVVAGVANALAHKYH

Row | Structure (SMILES) | capture of misfolded protein from solution by immobilized compound [1] | Signal (a.u.) (Aβ; Nunc Maxisorp, coat 100 μg/ml) | % tPA binding to Hb-AGE (co-incubation) [2] | Signal (a.u.) (Aβ; Nunc amino Immobilizer, coat 1 μg/ml) | Use or activity in vitro/in vivo [3] | Use or activity in vitro/in vivo ([3]; thalicmidine)
1 | O=c1oc2c(O)c(O)cc3c(=O)oc4c(O)c(O)cc1c4c23 [compound 117, Ellagic acid hydrate] | Capture of misfolded protein from solution | 0.054 a.u. | – | – | – | –
2 | COc1cc2c(cc1O)C[C@H]1c3c(cc(OC)c(O)c3-2)CCN1C [compound 202, Isoboldine] | Capture of misfolded protein from solution | 0.11 a.u. | 250% | 0.08 a.u. | potency to suppress LPS-induced proliferation in vitro; also recorded: potent antiplasmodial activity | –
3 | COc1cc2c(cc1OC)-c1c(O)c(OC)cc3c1[C@H](C2)N(C)CC3 [compound 201, Thaliporphine, thalicmidine] | Capture of misfolded protein from solution | – | 30% | – | – | increased survival rate of LPS-treated mice; also recorded: suppression of TNFα, NO. and O^2− production; also recorded: stimulated splenocyte proliferation induced by LPS; also recorded: potent vasoconstrictor
